The target in experiment [1] is T1, full length recombinant Pim-1 protein (Homo sapiens, UniProt P11309).
T1 construct: by full length recombinant Pim-1, Pim-2, or Pim-3 protein; hexahistidine tag followed by a thrombin cleavage site (N); made in house; host or cells: Sf9 (baculovirus) or E. coli (pET28)
Put plainly: Pim-1 enzyme assay (HTRF, phosphorylation of biotinylated-BAD (S112) peptide). Format: biochemical. Particulars: enzyme assay, Pim-1; read-out: Pim_1_IC50. Put shortly: (§1)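 HTRF readout (europium anti-pBAD S112 antibody, streptavidin-APC) of biotin-BAD peptide phosphorylation by recombinant full-length Pim-1 or Pim-2, buffer 60 mM Hepes pH 7.0, 2 mM DTT, 0.05% BSA. Enzymes were His6-tagged, from baculovirus/Sf9 or E. coli.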
In general terms: In TR-FRET formats the signal depends on donor and acceptor labels being close together.

In experiment [2] the target is T2, Pim-2 stably transfected into the U2OS human osteogenic sarcoma line (Homo sapiens, UniProt Q9P1W9).
T2 construct: expressed in transfected cells; host or cells: U2OS human osteogenic sarcoma line
T2 sequence (Q9P1W9 whole entry): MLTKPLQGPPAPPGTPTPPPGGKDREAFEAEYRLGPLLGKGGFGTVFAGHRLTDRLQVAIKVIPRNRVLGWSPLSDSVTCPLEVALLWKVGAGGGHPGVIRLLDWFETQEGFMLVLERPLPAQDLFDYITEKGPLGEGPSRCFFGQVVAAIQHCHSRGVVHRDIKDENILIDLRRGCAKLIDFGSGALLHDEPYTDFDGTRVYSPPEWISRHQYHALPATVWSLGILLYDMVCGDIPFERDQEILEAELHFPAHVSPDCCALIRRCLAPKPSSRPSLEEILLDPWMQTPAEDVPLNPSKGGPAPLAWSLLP
The experiment can be described thus: Pim cell assay, phospho-BAD normalized against total BAD, U2OS stably transfected with Pim-2. Further: high dose 31.6 µM. In kind it is cell-based. Particulars: U2OS cells stably transfected with Pim-2, phospho-BAD; high dose […]; read-out: Pim2_Cell_IC50. Put shortly:
(§2)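 Read-out is phospho-BAD relative to total BAD, by MSD electrochemiluminescence on lysates, expressed as % phosphoprotein = (2×phospho)/(phospho+total)×100. Engineered U2OS lines carrying stably transfected Pim-1 or Pim-2 received 10-point compound dilutions at 0.3% final DMSO after overnight culture at 37 °C; DMSO-only wells served as high control.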

Experiment [3] has as its target T3, full length recombinant Pim-3 protein (Homo sapiens, UniProt Q86V86).
T3 construct: by full length recombinant Pim-1, Pim-2, or Pim-3 protein; purchased Millipore (UK)
The experiment can be described thus: Pim-3 enzyme assay (HTRF, phosphorylation of biotinylated-BAD (S112) peptide). Particulars: read-out: Pim3 IC50. In kind it is biochemical. Put shortly:
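HTRF read-out, streptavidin-APC plus Eu-labelled anti-phospho-BAD (S112) antibody, measures BAD peptide phosphorylation by full-length recombinant Pim-3. Buffer: 60 mM Hepes pH 7.0, 2 mM DTT, 0.05% BSA; EDTA (3 mM) stop. Percent of control per well, IC50 by 4-parameter logistic fit.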

Experiment [4] has as its target T4, full length recombinant Pim-2 protein (Homo sapiens, UniProt Q9P1W9).
T4 construct: by full length recombinant Pim-1, Pim-2, or Pim-3 protein; hexahistidine tag followed by a thrombin cleavage site (N); made in house; host or cells: Sf9 (baculovirus) or E. coli (pET28)
The experiment can be described thus: Pim-2 enzyme assay (HTRF, phosphorylation of biotinylated-BAD (S112) peptide). In kind it is biochemical. The conditions noted are these: enzyme assay, Pim-2; read-out: Pim2_IC50. Put shortly:
as §1

For experiment [5], the target named is T5, Pim-1 stably transfected into the U2OS human osteogenic sarcoma line (Homo sapiens, UniProt P11309).
T5 construct: expressed in transfected cells; host or cells: U2OS human osteogenic sarcoma line
T5 sequence (P11309 whole entry): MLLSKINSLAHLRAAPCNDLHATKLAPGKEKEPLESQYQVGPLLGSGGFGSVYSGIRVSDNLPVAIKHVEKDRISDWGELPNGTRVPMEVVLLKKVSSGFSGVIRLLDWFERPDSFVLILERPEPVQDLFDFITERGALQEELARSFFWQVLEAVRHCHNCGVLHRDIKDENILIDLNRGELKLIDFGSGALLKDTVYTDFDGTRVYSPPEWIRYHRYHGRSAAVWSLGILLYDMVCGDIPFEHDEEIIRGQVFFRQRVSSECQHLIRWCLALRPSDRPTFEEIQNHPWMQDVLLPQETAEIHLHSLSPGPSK
The experiment can be described thus: Pim cell assay, phospho-BAD normalized against total BAD, U2OS stably transfected with Pim-1. In kind it is cell-based. The conditions noted are these: U2OS cells stably transfected with Pim-1, phospho-BAD; high dose […]; read-out: Pim1_Cell_IC50. Put shortly: as §2

T1 sequence (P11309 whole entry): as above
T4 sequence (Q9P1W9 whole entry): as the sequence (Q9P1W9 whole entry) above

Regarding `CCOc1cccc(-c2ccc3[nH]nc(-c4cncc(N5CCC(N)CC5)n4)c3c2)n1` [Example 65, 1-(6-(5-(6-ethoxy-2-pyridinyl)-1H-indazol-3-yl)-2-pyrazinyl)-4-piperidinamine], the IC50 was 13 nM in experiment [1]; above 31600 nM in experiment [2]; 18 nM in experiment [3]; 274 nM in experiment [4]; 3530 nM in experiment [5].
As for `NC1CCN(c2cncc(-c3n[nH]c4ccc(-c5cccc(F)n5)cc34)n2)CC1` [Example 66, 1-(6-(5-(6-fluoro-2-pyridinyl)-1H-indazol-3-yl)-2-pyrazinyl)-4-piperidinamine], the IC50 in experiment [1] turned out to be 4 nM; in experiment [2] it was 17300 nM; in experiment [3] it was 2 nM; in experiment [4], 33 nM; in experiment [5], 401 nM.
Consider `NC1CCN(c2cncc(-c3n[nH]c4ccc(-c5ccccc5F)cc34)n2)CC1` [Example 67, 1-(6-(5-(2-fluorophenyl)-1H-indazol-3-yl)-2-pyrazinyl)-4-piperidinamine], for which the IC50 in experiment [1] is 2 nM; in experiment [2], 15000 nM; in experiment [3], 1 nM; in experiment [4], 10 nM; in experiment [5] it was 380 nM.
Turning to `NC1CCN(c2cncc(-c3n[nH]c4ccc(-c5cccnc5O)cc34)n2)CC1` [Example 68, 3-(3-(6-(4-amino-1-piperidinyl)-2-pyrazinyl)-1H-indazol-5-yl)-2-pyridinol], the IC50 in experiment [1] was 20 nM; in experiment [2] it was above 31600 nM; in experiment [3], 11 nM; in experiment [4], 88 nM; in experiment [5], above 31600 nM.
For `COc1cc(-c2ccc3[nH]nc(-c4cncc(N5CCC(N)CC5)n4)c3c2)c(F)cn1` [Example 70, 1-(6-(5-(5-fluoro-2-methoxy-4-pyridinyl)-1H-indazol-3-yl)-2-pyrazinyl)-4-piperidinamine], the IC50 in experiment [1] is 5 nM; in experiment [2], above 31600 nM; in experiment [3], 4 nM; in experiment [4] it was 18 nM; in experiment [5] it was 255 nM.
The like results for `NC1CCN(c2cncc(-c3n[nH]c4ccc(-c5cccc(F)c5F)cc34)n2)CC1` [Example 71, 1-(6-(5-(2,3-difluorophenyl)-1H-indazol-3-yl)-2-pyrazinyl)-4-piperidinamine] were, in that order, 3 nM, 8820 nM, 1 nM, 11 nM and 256 nM.
On to `NC1CCN(c2cncc(-c3n[nH]c4ccc(-c5ccccc5O)cc34)n2)CC1` [Example 72, 2-(3-(6-(4-amino-1-piperidinyl)-2-pyrazinyl)-1H-indazol-5-yl)phenol], for which the IC50 in experiment [1] is 3 nM; in experiment [2] it was above 31600 nM; in experiment [3], 5 nM; in experiment [4], 82 nM; in experiment [5], 533 nM.
The like results for `NC1CCN(c2cncc(-c3n[nH]c4ccc(-c5cc(=O)[nH]cc5Cl)cc34)n2)CC1` [Example 74, 4-(3-(6-(4-amino-1-piperidinyl)-2-pyrazinyl)-1H-indazol-5-yl)-5-chloro-2(1H)-pyridinone] were, in that order, 14 nM, above 31600 nM, 15 nM, 54 nM and above 31600 nM.
The like results for `NC1CCN(c2cncc(-c3n[nH]c4ccc(-c5ccccc5)cc34)n2)CC1` [Example 75, 1-(6-(5-phenyl-1H-indazol-3-yl)-2-pyrazinyl)-4-piperidinamine] were, in that order, 7 nM, above 31600 nM, 3 nM, 49 nM and 480 nM.
`CS(=O)(=O)c1cccc(-c2ccc3[nH]nc(-c4cncc(N5CCC(N)CC5)n4)c3c2)c1` [Example 76, 1-(6-(5-(3-(methylsulfonyl)phenyl)-1H-indazol-3-yl)-2-pyrazinyl)-4-piperidinamine]: the IC50 in experiment [1] was 16 nM; in experiment [2] it was above 31600 nM; in experiment [3] it was 5 nM; in experiment [4] it was 187 nM; in experiment [5], 2740 nM.
The like results for `COc1cccc(-c2ccc3[nH]nc(-c4cncc(N5CCC(N)CC5)n4)c3c2)c1` [Example 77, 1-(6-(5-(3-methoxyphenyl)-1H-indazol-3-yl)-2-pyrazinyl)-4-piperidinamine] were, in that order, 6 nM, above 31600 nM, 3 nM, 70 nM and 453 nM.
For `NC1CCN(c2cncc(-c3n[nH]c4ccc(-c5cccc(O)c5)cc34)n2)CC1` [Example 78, 3-(3-(6-(4-amino-1-piperidinyl)-2-pyrazinyl)-1H-indazol-5-yl)phenol], in that order: 2 nM, 7970 nM, 1 nM, 27 nM and 885 nM.
For `NC1CCN(c2cncc(-c3n[nH]c4ccc(-c5ccn[nH]5)cc34)n2)CC1` [Example 80, 1-(6-(5-(1H-pyrazol-5-yl)-1H-indazol-3-yl)-2-pyrazinyl)-4-piperidinamine], in that order: 3 nM, above 31600 nM, 1 nM, 15 nM and 2380 nM.
`Nc1cccc(-c2ccc3[nH]nc(-c4cncc(N5CCC(N)CC5)n4)c3c2)c1` [Example 81, 1-(6-(5-(3-aminophenyl)-1H-indazol-3-yl)-2-pyrazinyl)-4-piperidinamine]: the IC50 in experiment [1] came out at 2 nM; in experiment [2], 7170 nM; in experiment [3], 3 nM; in experiment [4] it was 29 nM; in experiment [5], 395 nM.
For the compound `NC1CCN(c2cncc(-c3n[nH]c4ccc(-c5ccccc5Cl)cc34)n2)CC1` [Example 83, 1-(6-(5-(2-chlorophenyl)-1H-indazol-3-yl)-2-pyrazinyl)-4-piperidinamine], the IC50 in experiment [1] was 10 nM; in experiment [2] it was 22100 nM; in experiment [3], 4 nM; in experiment [4], 34 nM; in experiment [5], 1420 nM.
With `NC1CCN(c2cncc(-c3n[nH]c4ccc(-c5cc([N+](=O)[O-])ccc5F)cc34)n2)CC1` [Example 84, 1-(6-(5-(2-fluoro-5-nitrophenyl)-1H-indazol-3-yl)-2-pyrazinyl)-4-piperidinamine], the IC50 in experiment [1] is 9 nM; in experiment [2], above 31600 nM; in experiment [3], 4 nM; in experiment [4], 45 nM; in experiment [5] it was 253 nM.
The like results for `NC1CCN(c2cncc(-c3n[nH]c4ccc(-c5cncc(F)c5)cc34)n2)CC1` [Example 85, 1-(6-(5-(5-fluoro-3-pyridinyl)-1H-indazol-3-yl)-2-pyrazinyl)-4-piperidinamine] were, in that order, 5 nM, 7020 nM, 1 nM, 36 nM and 176 nM.
In the case of `COc1cc(OC)cc(-c2ccc3[nH]nc(-c4cncc(N5CCC(N)CC5)n4)c3c2)c1` [Example 86, 1-(6-(5-(3,5-dimethoxyphenyl)-1H-indazol-3-yl)-2-pyrazinyl)-4-piperidinamine], the IC50 in experiment [1] amounted to 6 nM; in experiment [2] it was 20300 nM; in experiment [3] it was 2 nM; in experiment [4], 60 nM; in experiment [5], 328 nM.
The like results for `NC1CCN(c2cncc(-c3n[nH]c4ccc(-c5cncnc5)cc34)n2)CC1` [Example 87, 1-(6-(5-(5-pyrimidinyl)-1H-indazol-3-yl)-2-pyrazinyl)-4-piperidinamine] were, in that order, 12 nM, above 31600 nM, 5 nM, 43 nM and 569 nM.
For `NC1CCN(c2cncc(-c3n[nH]c4ccc(-c5ccccn5)cc34)n2)CC1` [Example 88, 1-(6-(5-(2-pyridinyl)-1H-indazol-3-yl)-2-pyrazinyl)-4-piperidinamine], in that order: 48 nM, above 31600 nM, 57 nM, 685 nM and 1190 nM.
For `NC1CCN(c2cncc(-c3n[nH]c4ccc(N5CCCCC5)cc34)n2)CC1` [Example 90, 1-(6-(5-(1-piperidinyl)-1H-indazol-3-yl)-2-pyrazinyl)-4-piperidinamine], in that order: 23 nM, above 31600 nM, 40 nM, 196 nM and 747 nM.

(Values after US9090593B2, “Bicyclic compounds as Pim inhibitors” (AMGEN INC., priority 2010, dated 2015).)
